In patent EP3345917A1, “ANTIPROTOZOAL COMPOUNDS” (Bacoba AG, priority 2017, dated 2018) one finds IC50 data, which are given here for eight compounds.

In data set [1] the test system is Trypanosoma cruzi trypomastigote forms (Tulahuen strain). In words: Intracellular Trypanosoma cruzi assay in L6-cells, beta-galactosidase/CPRG readout. It is filed as cell-based. The following applies: In vitro inhibition, read-out: T.cruzi. The procedure:
(§1) Tests were done in triplicate.
Trypanosoma cruzi trypomastigote forms (Tulahuen strain C2C4 containing β-galactosidase (Lac Z) gene) were cultured as described by Buckner et al. (Buckner FS et al. Antimicrob Agents Ch1996; 40: 2592-2597) in rat myoblast cells (L6-cells). […] After incubation, the substrate chlorophenyl red β-D-galactopyranoside agent CPRG/Nonident was added to all wells and a color change was developed within 2 to 6 h. The plates were read photometrically at 540 nm (Molecular Devices). Data were evaluated and IC50 values calculated using Softmax Pro software (Molecular Devices).

In data set [2] the test system is Plasmodium falciparum. Kind of data set: 3H-hypoxanthine incorporation assay against Plasmodium falciparum. The data set is classed as cell-based. The following applies: In vitro inhibition, read-out: P.falc NF5. The procedure:
as §1
IC50 values were calculated by linear interpolation.

Data set [3] concerns Axenically grown Leishmania donovani amastigotes (strain MHOM/ET/67/L82). In words: Axenic Leishmania donovani amastigote resazurin assay. It is filed as cell-based. The settings on record: In vitro inhibition, read-out: L.don. ax. The procedure: as §1
Axenically grown Leishmania donovani amastigotes (strain MHOM/ET/67/L82) were grown and tests were done as previously described using the resazurin assay (Räz B et al. Acta Tropica 1997, 68:139-147). The plates were developed for 2-4 hours and read on a Spectramax Gemini XS micro plate fluorometer (Molecular Devices Cooperation) using an excitation wavelength of 536 nm and emission wavelength of 588 nm. Fluorescence development was measured and expressed as percentage of the negative control. […] Data were transferred to the graphic programme Softmax Pro (Molecular Devices), with which IC50 values were calculated.
Background: Alamar Blue is a resazurin reagent that responds to reducing activity.

Data set [4] in a line: Cytotoxicity assay on L6-cells (Alamar Blue). The following applies: rat, Cytotox L6, Cytotoxicity against rat myoblast cells (L6).
Data set [5] relates to Trypanosoma brucei rhodesiense (STIB 900 strain). In words: Alamar Blue assay against Trypanosoma brucei rhodesiense grown in axenic medium. The data set is classed as cell-based. The settings on record: In vitro inhibition, read-out: T.b.rhod. Here is the method: as §1
Trypanosoma brucei rhodesiense (STIB 900) were grown in axenic medium as described by Baltz et al. (1985) The samples were tested using the Alamar Blue assay protocol (Baltz T et al. EMBO J 1985; 4:1273-1277) to determine the 50% inhibitory concentration (IC50). […] Melarsoprol (Arsobal®, Sanofi-Aventis, Switzerland) was used as a reference drug (IC50= 0.03 ± 0.01 µM). Its purity was over 95 %, as was certified by the supplier. The IC50 values were calculated by using Softmax Pro software (Molecular Devices Cooperation, Sunnyvale, CA).

Non-standard residues stand in square brackets, D forms with d. Residues, ends and D or L forms follow the SMILES beside them. *: point of attachment. Hexenoyl(2E,4S-Me) = CC[C@H](C)/C=C/C(=O)*; Leu(3R-OH) = CC(C)[C@@H](O)[C@H](N)C(=O)O; NH((S)CH(Me)CH2NMe2) = C[C@@H](CN(C)C)N*; Gly(octyl) = CCCCCCCC[C@H](N)C(=O)O; Oxazole4CO(2-Me) = Cc1nc(C(=O)*)co1; X16 = COc1ccc2cc(C(=O)*)c(=O)oc2c1; Piperazinyl(4-Me) = CN1CCN(*)CC1; X22 = CC1CC(C)CN(CCN*)C1; Hexanoyl = CCCCCC(=O)*; X18 = CN1CCN(CCN*)CC1; Aib = CC(C)(N)C(=O)O; X14 = O=C(c1cocn1)*; βAla = NCCC(=O)O

With `CCCCCCCC[C@H](NC(=O)c1coc(C)n1)C(=O)N[C@H](C(=O)NC(C)(C)C(=O)N[C@@H](CC(C)C)C(=O)N[C@@H](CC(C)C)C(=O)NC(C)(C)C(=O)NC(C)(C)C(=O)NCCC(=O)N[C@@H](C)CN(C)C)[C@@H](C)O` [Compound 5640, (2S)-N-[(1S,2R)-1-[(1-{[(1S)-1-{[(1S)-1-{[1-({1-[(2-{[(2S)-1-(dimethylamino)propan-2-yl]carbamoyl}ethyl)carbamoyl]-1-methylethyl}carbamoyl)-1-methylethyl]carbamoyl}-3-methylbutyl]carbamoyl}-3-methylbutyl]carbamoyl}-1-methylethyl)carbamoyl]-2-hydroxypropyl]-2-[(2-methyl-1,3-oxazol-4-yl)formamido]decanamide] ({Oxazole4CO(2-Me)}-[Gly(octyl)]T[Aib]LL[Aib][Aib][βAla]-{NH((S)CH(Me)CH2NMe2)}), the IC50 amounted to 3740 nM in data set [1], 85.6 nM in data set [2], 193 nM in data set [3] and 5.3 nM in data set [5]. Further, the IC50 at 70 h in data set [4] is 4440 nM.
For the compound `CCCCCC(=O)N1CCC[C@H]1C(=O)N[C@@H](CCCCNC(=O)c1cc2ccc(OC)cc2oc1=O)C(=O)N[C@@H](CC(C)C)C(=O)NC(C)(C)C(=O)N[C@@H](CC(C)C)C(=O)N[C@@H](CC(C)C)C(=O)NC(C)(C)C(=O)NC(C)(C)C(=O)NCCC(=O)N[C@@H](C)CN(C)C` [Compound 5767, (2S)-N-[(1S)-1-[(1-{[(1S)-1-{[(1S)-1-{[1-({1-[(2-{[(2S)-1-(dimethylamino)propan-2-yl]carbamoyl}ethyl)carbamoyl]-1-methylethyl}carbamoyl)-1-methylethyl]carbamoyl}-3-methylbutyl]carbamoyl}-3-methylbutyl]carbamoyl}-1-methylethyl)carbamoyl]-3-methylbutyl]-2-{[(2S)-1-hexanoylpyrrolidin-2-yl]formamido}-6-[(7-methoxy-2-oxo-2H-chromen-3-yl)formamido]hexanamide] (Hexanoyl-PK(X16)L[Aib]LL[Aib][Aib][βAla]-{NH((S)CH(Me)CH2NMe2)}), the IC50 in data set [1] is 114 nM; in data set [2] it was 21.3 nM; in data set [3], 17.8 nM; in data set [5] it was 3.5 nM. Besides, the IC50 at 70 h in data set [4] was determined as 508 nM.
For `CCCCCCCC[C@H](NC(=O)[C@@H]1CCCN1C(=O)CCCCC)C(=O)N[C@@H](CC(C)C)C(=O)NC(C)(C)C(=O)N[C@@H](CC(C)C)C(=O)N[C@@H](CC(C)C)C(=O)NC(C)(C)C(=O)NC(C)(C)C(=O)NCCC(=O)NCCN1CCN(C)CC1` [Compound 5884, (2S)-2-{[(2S)-1-hexanoylpyrrolidin-2-yl]formamido}-N-[(1S)-3-methyl-1-[(1-methyl-1-{[(1S)-3-methyl-1-{[(1S)-3-methyl-1-{[1-methyl-1-({1-methyl-1-[(2-{[2-(4-methylpiperazin-1-yl)ethyl]carbamoyl}ethyl)carbamoyl]ethyl}carbamoyl)ethyl]carbamoyl}butyl]carbamoyl}butyl]carbamoyl}ethyl)carbamoyl]butyl]decanamide] (Hexanoyl-P[Gly(octyl)]L[Aib]LL[Aib][Aib][βAla]-X18) the same measures were 42500 nM, 15000 nM, 19400 nM, 0.6 nM and 128 nM.
For `CCCCCCCC[C@H](NC(=O)[C@@H]1CCCN1C(=O)/C=C/[C@@H](C)CC)C(=O)N[C@H](C(=O)NC(C)(C)C(=O)N[C@@H](CC(C)C)C(=O)N[C@@H](CC(C)C)C(=O)NC(C)(C)C(=O)NC(C)(C)C(=O)NCCC(=O)N1CCN(C)CC1)[C@H](O)C(C)C` [Compound 5571, (2S)-N-[(1S,2R)-2-hydroxy-3-methyl-1-[(1-methyl-1-{[(1S)-3-methyl-1-{[(1S)-3-methyl-1-({1-methyl-1-[(1-methyl-1-{[3-(4-methylpiperazin-1-yl)-3-oxopropyl]carbamoyl}ethyl)carbamoyl]ethyl}carbamoyl)butyl]carbamoyl}butyl]carbamoyl}ethyl)carbamoyl]butyl]-2-{[(2S)-1-[(2E,4S)-4-methylhex-2-enoyl]pyrrolidin-2-yl]formamido}decanamide] ({Hexenoyl(2E,4S-Me)}-P[Gly(octyl)][Leu(3R-OH)][Aib]LL[Aib][Aib][βAla]-{Piperazinyl(4-Me)}) the same measures were 2930 nM, 125 nM, 398 nM, 214 nM and 2630 nM.
For `CCCCCCCC[C@H](NC(=O)[C@@H]1CCCN1C(=O)/C=C/[C@@H](C)CC)C(=O)N[C@@H](CO)C(=O)NC(C)(C)C(=O)N[C@@H](CC(C)C)C(=O)N[C@@H](CC(C)C)C(=O)NC(C)(C)C(=O)NC(C)(C)C(=O)NCCC(=O)N[C@@H](C)CN(C)C` (stereo in doubt) [Compound 5521, (2S)-N-[(1S)-1-[(1-{[(1S)-1-{[(1S)-1-{[1-({1-[(2-{[(2S)-1-(dimethylamino)propan-2-yl]carbamoyl}ethyl)carbamoyl]-1-methylethyl}carbamoyl)-1-methylethyl]carbamoyl}-3-methylbutyl]carbamoyl}-3-methylbutyl]carbamoyl}-1-methylethyl)carbamoyl]-2-hydroxyethyl]-2-{[(2S)-1-[(2E,4S)-4-methylhex-2-enoyl]pyrrolidin-2-yl]formamido}decanamide], the IC50 in data set [1] was 807 nM; in data set [2], 8.5 nM; in data set [3] it was 3.6 nM; in data set [5] it was 1.3 nM. In data set [4], the IC50 at 70 h worked out at 1650 nM.
Regarding `CCCCCCCC[C@H](NC(=O)c1cocn1)C(=O)N[C@H](C(=O)NC(C)(C)C(=O)N[C@@H](CC(C)C)C(=O)N[C@@H](CC(C)C)C(=O)NC(C)(C)C(=O)NC(C)(C)C(=O)NCCC(=O)N[C@@H](C)CN(C)C)[C@@H](C)O` [Compound 5639, (2S)-N-[(1S,2R)-1-[(1-{[(1S)-1-{[(1S)-1-{[1-({1-[(2-{[(2S)-1-(dimethylamino)propan-2-yl]carbamoyl}ethyl)carbamoyl]-1-methylethyl}carbamoyl)-1-methylethyl]carbamoyl}-3-methylbutyl]carbamoyl}-3-methylbutyl]carbamoyl}-1-methylethyl)carbamoyl]-2-hydroxypropyl]-2-[(1,3-oxazol-4-yl)formamido]decanamide] (X14-[Gly(octyl)]T[Aib]LL[Aib][Aib][βAla]-{NH((S)CH(Me)CH2NMe2)}), the IC50 came to 5360 nM in data set [1], 244 nM in data set [2], 540 nM in data set [3] and 22.5 nM in data set [5]. The compound further had an IC50 at 70 h in data set [4] of 1640 nM.
Taken in the same sequence, the figures for `CCCCCCCC[C@H](NC(=O)[C@@H]1CCCN1C(=O)CCCCC)C(=O)N[C@@H](CC(C)C)C(=O)NC(C)(C)C(=O)N[C@@H](CC(C)C)C(=O)N[C@@H](CC(C)C)C(=O)NC(C)(C)C(=O)NC(C)(C)C(=O)NCCC(=O)NCCN1CC(C)CC(C)C1` (stereo partly drawn) [Compound 5885, (2S)-N-[(1S)-1-[(1-{[(1S)-1-{[(1S)-1-{[1-({1-[(2-{[2-(3,5-dimethylpiperidin-1-yl)ethyl]carbamoyl}ethyl)carbamoyl]-1-methylethyl}carbamoyl)-1-methylethyl]carbamoyl}-3-methylbutyl]carbamoyl}-3-methylbutyl]carbamoyl}-1-methylethyl)carbamoyl]-3-methylbutyl]-2-{[(2S)-1-hexanoylpyrrolidin-2-yl]formamido}decanamide] (Hexanoyl-P[Gly(octyl)]L[Aib]LL[Aib][Aib][βAla]-X22) were 42600 nM, 0.9 nM, 46800 nM, 0.2 nM and 45.6 nM.
For `CCCCCCCC[C@H](NC(=O)[C@@H]1CCCN1C(=O)CCCCC)C(=O)N[C@H](C(=O)NC(C)(C)C(=O)NC(C)(C)C(=O)NCCC(=O)N[C@@H](C)CN(C)C)[C@@H](C)O` [Compound 5594, (2S)-N-[(1S)-1-[[(1S,2R)-1-[[2-[[2-[[3-[[(1S)-2-(dimethylamino)-1-methyl-ethyl]amino]-3-oxo-propyl]amino]-1,1-dimethyl-2-oxo-ethyl]amino]-1,1-dimethyl-2-oxo-ethyl]carbamoyl]-2-hydroxy-propyl]carbamoyl]nonyl]-1-hexanoyl-pyrrolidine-2-carboxamide] (Hexanoyl-P[Gly(octyl)]T[Aib][Aib][βAla]-{NH((S)CH(Me)CH2NMe2)}) the same measures were 8610 nM, 2320 nM, 571 nM, 2240 nM and 6020 nM.
